This passage reports MIC results from patent US20250270246A1, “LINCOSAMIDES AND USES THEREOF” (President and Fellows of Harvard College, priority 2022, published 2025).

What all share (assay): MIC by broth microdilution (CLSI)
Common to all, as to assay type: cell-based
Background: Dilution methods test growth across graded concentrations, often in twofold steps.

Test [1] has as its system A. baumannii ATCC 19606 (HAV#010). The conditions noted are these: Acinetobacter baumannii, ATCC19606, 24 h, read-out: MIC A. baumannii ATCC 19606. The protocol: (§1) Minimum inhibitory concentrations (MICs) were determined by the broth microdilution method following the Clinical and Laboratory Standards Institute (CLSI) guidelines. Test organisms consisted of standard reference strains from the American Type Culture Collection (ATCC; Manassa, VA, USA) and clinical isolates obtained from JMI Laboratories Inc. (North Liberty, IA, USA), Micromyx repository (MMX; Kalamazoo, MI, USA), and Massachusetts Eye and Ear Hospital (Boston, USA). Before the start of the MIC experiment, standard and test compound stock solutions were prepared in dimethyl sulfoxide (DMSO, Aldrich D2650) at a stock concentration of 2,560 μg/mL. The compound concentration range typically employed for each experiment was 64-0.06 μg/mL (2.5% final DMSO concentration). Iboxamycin was used as a comparator in all experiments. All bacterial strains were sub-cultured on blood agar plates (tryptic soy agar with 5% sheep blood, Hardy Diagnostics) and incubated overnight at 35° C. Organisms were suspended in cation-adjusted Mueller-Hinton broth (CaMHB, BD 212322) and optical density was adjusted to 0.5 McFarland standard. Suspensions were further diluted to obtain a final inoculum of 5×10^5 CFU/mL for broth microdilution experiments. The minimum concentration of compound required to inhibit visible bacterial growth after 24 h of incubation was recorded as the MIC in μg/mL. MICs for P. aeruginosa were recorded in cation-adjusted Mueller-Hinton broth which had been pre-treated with Chelex 100 ion exchange resin according to procedures reported in Ito et al. Antimicrob Agents Chemother (2016) 60 (12), 7396-7401.

In test [2] the test system is E. coli ATCC 25922 (HAV#006). The conditions noted are these: Escherichia coli, ATCC25922, 24 h, read-out: MIC E. coli ATCC 25922. The protocol: as §1
A further test has as its system E. coli lptD mutant. To be noted: Escherichia coli, 24 h, read-out: MIC E. coli lptD mutant, lptD mutant / ΔlptD mutant; CaMHB, 24 h incubation. The protocol: as §1
Another test deals with E. coli ΔtolC. The conditions noted are these: Escherichia coli, 24 h, read-out: MIC E. coli ΔtolC, ΔtolC; CaMHB, 24 h incubation. The protocol:
as §1

The test system of test [3] is E. faecalis ATCC 29212 (HAV#005). To be noted: Enterococcus faecalis, ATCC29212, 24 h, read-out: MIC E. faecalis ATCC 29212. The protocol:
as §1

Another test has as its system E. faecium JMI-990536. The conditions noted are these: Enterococcus faecium, JMI990536, 24 h, read-out: MIC E. faecium JMI-990536. How it is done: as §1
The test system of a further test is K. pneumoniae JMI-991193. The conditions noted are these: Klebsiella pneumoniae, JMI991193, 24 h, read-out: MIC K. pneumoniae JMI-991193. How it is done:
as §1

Test [4] deals with S. aureus ATCC 29213 (HAV#001). To be noted: Staphylococcus aureus, ATCC29213, 24 h, read-out: MIC S. aureus ATCC 29213. The protocol: as §1
In a further test the test system is S. aureus Clinical (cfr). The conditions noted are these: Staphylococcus aureus, 24 h, read-out: MIC S. aureus Clinical (cfr). How it is done: as §1
The subject of another test is S. aureus MMX 3035. The conditions noted are these: Staphylococcus aureus, MMX3035, 24 h, read-out: MIC S. aureus MMX 3035. The protocol: as §1
The mark [5] stands for this setting: HAV#010, ATCC 19606, CaMHB, 24 h incubation.
The mark [6] stands for this setting: HAV#006, ATCC 25922, CaMHB, 24 h incubation.
The mark [7] stands for this setting: HAV#005, ATCC 29212, CaMHB, 24 h incubation.
Where [8] appears, read: JMI-990536, CaMHB, 24 h incubation.
[9] abbreviates: JMI-991193, CaMHB, 24 h incubation.
Where [10] appears, read: HAV#001, ATCC 29213, CaMHB, 24 h incubation.
The mark [11] stands for this setting: Clinical (cfr), CaMHB, 24 h incubation.
The mark [12] stands for this setting: MMX 3035, CaMHB, 24 h incubation.

Where a name gives a salt, the structure may show the parent alone. Read-outs that look alike come from different tables or passages of the source. Bounds are passed on as bounds.

For `CC(C)C[C@@H]1CCO[C@@H]2[C@H](CN[C@@H]2C(=O)N[C@@H]2C/C=C\C[C@@H](CN3CCOCC3)S[C@H]3O[C@H]2[C@H](O)[C@H](O)[C@H]3O)C1` [FSA1607019, (4S,5aS,8S,8aR)-4-isobutyl-N-((1R,3S,8R,9R,10R,11S,12R,Z)-10,11,12-trihydroxy-3-(morpholinomethyl)-13-oxa-2-thiabicyclo[7.3.1]tridec-5-en-8-yl) octahydro-2H-oxepino[2,3-c]pyrrole-8-carboxamide formate salt], the MIC in test [1] (setting [5]) was 32 µg/mL; in test [2] (setting [6]), 4 µg/mL; with E. coli lptD mutant, 0.5 µg/mL; in the test on E. coli ΔtolC, 0.25 µg/mL; in test [3] (setting [7]), 2 µg/mL; in the test with E. faecium JMI-990536 (setting [8]), 4 µg/mL. For the same molecule, the MIC in the test on K. pneumoniae JMI-991193 (setting [9]) was greater than 64 µg/mL; in [4] (setting [10]), 4 µg/mL; in the test on S. aureus Clinical (cfr) (setting [11]), 16 µg/mL; in the test on S. aureus MMX 3035 (setting [12]) it was 8 µg/mL.

As for `CC(C)C[C@@H]1CCO[C@@H]2[C@H](CN[C@@H]2C(=O)N[C@@H]2C/C=C/[C@H](O)CS[C@H]3O[C@H]2[C@H](O)[C@H](O)[C@H]3O)C1` [FSA1608009, (4S,5aS,8S,8aR)-4-isobutyl-N-((1R,4S,8R,9R,10R,11S,12R,E)-4,10,11,12-tetrahydroxy-13-oxa-2-thiabicyclo[7.3.1]tridec-5-en-8-yl) octahydro-2H-oxepino[2,3-c]pyrrole-8-carboxamide formate salt], the MIC (in [1] (setting [5]); in test [2] (setting [6]); in the test on E. coli lptD mutant; in the test on E. coli ΔtolC; in [3] (setting [7]); in the test on E. faecium JMI-990536 (setting [8])) was greater than 64 µg/mL throughout. Moreover, the MIC in the test with K. pneumoniae JMI-991193 (setting [9]) is greater than 64 µg/mL; in [4] (setting [10]), 32 µg/mL; in the test on S. aureus Clinical (cfr) (setting [11]), greater than 64 µg/mL; with S. aureus MMX 3035 (setting [12]) it was greater than 64 µg/mL.

In the case of `CC(C)C[C@@H]1CCO[C@@H]2[C@H](CN[C@@H]2C(=O)N[C@@H]2C/C=C\C[C@@H](c3cn(-c4ccccc4)nn3)S[C@H]3O[C@H]2[C@H](O)[C@H](O)[C@H]3O)C1` [FSA1607075, (4S,5aS,8S,8aR)-4-isobutyl-N-((1R,3S,8R,9R,10R,11S,12R,Z)-10,11,12-trihydroxy-3-(1-phenyl-1H-1,2,3-triazol-4-yl)-13-oxa-2-thiabicyclo[7.3.1]tridec-5-en-8-yl) octahydro-2H-oxepino[2,3-c]pyrrole-8-carboxamide formate salt], the MIC is 8 µg/mL in test [1] (setting [5]); 4 µg/mL in test [2] (setting [6]); 2 µg/mL with E. coli lptD mutant; 2 µg/mL with E. coli ΔtolC; 2 µg/mL in test [3] (setting [7]); 2 µg/mL with E. faecium JMI-990536 (setting [8]). Further, the MIC is 32 µg/mL in the test with K. pneumoniae JMI-991193 (setting [9]), 2 µg/mL in test [4] (setting [10]), 8 µg/mL in the test with S. aureus Clinical (cfr) (setting [11]) and 4 µg/mL in the test on S. aureus MMX 3035 (setting [12]).

`CC(=O)OC[C@@H]1C/C=C\C[C@@H](NC(=O)[C@H]2NC[C@@H]3C[C@H](CC(C)C)CCO[C@H]32)[C@H]2O[C@H](S1)[C@H](O)[C@@H](O)[C@H]2O` [FSA1607032, ((1R,3S,8R,9R,10R,11S,12R,Z)-10,11,12-trihydroxy-8-((4S,5aS,8S,8aR)-4-isobutyloctahydro-2H-oxepino[2,3-c]pyrrole-8-carboxamido)-13-oxa-2-thiabicyclo[7.3.1]tridec-5-en-3-yl)methyl acetate formate salt]: the MIC in [1] stood at 32 µg/mL; in test [2], 8 µg/mL; in the test on E. coli lptD mutant, 2 µg/mL; in the test with E. coli ΔtolC, 0.25 µg/mL; in test [3], 0.5 µg/mL; with E. faecium JMI-990536, 2 µg/mL. The MIC amounted to 64 µg/mL in the test on K. pneumoniae JMI-991193, 0.5 µg/mL in [4], 16 µg/mL with S. aureus Clinical (cfr) and 4 µg/mL with S. aureus MMX 3035.

Take `CC(C)C[C@@H]1CCO[C@@H]2[C@H](CN[C@@H]2C(=O)N[C@H]2[C@H]3O[C@H](S[C@H](c4cn(-c5ccc(F)cc5F)nn4)C/C=C\[C@H]2C)[C@H](O)[C@@H](O)[C@H]3O)C1` [FSA1609052, (4S,5aS,8S,8aR)—N-((1R,3S,7R,8R,9R,10R,11S,12R,Z)-3-(1-(2,4-difluorophenyl)-1H-1,2,3-triazol-4-yl)-10,11,12-trihydroxy-7-methyl-13-oxa-2-thiabicyclo[7.3.1]tridec-5-en-8-yl)-4-isobutyloctahydro-2H-oxepino[2,3-c]pyrrole-8-carboxamide formate salt]: the MIC was 1 µg/mL in test [1]; 2 µg/mL in [2]; 0.125 µg/mL in the test with E. coli lptD mutant; 0.125 µg/mL in the test with E. coli ΔtolC; 0.25 µg/mL in test [3]; 0.5 µg/mL in the test on E. faecium JMI-990536. Also, the MIC in the test on K. pneumoniae JMI-991193 was 4 µg/mL; in [4] it was 0.25 µg/mL; with S. aureus Clinical (cfr), 0.5 µg/mL; in the test with S. aureus MMX 3035, 0.5 µg/mL.

`CC(C)C[C@@H]1CCO[C@@H]2[C@H](CN[C@@H]2C(=O)N[C@H]2[C@H]3O[C@H](S[C@H](c4cn(-c5cc(F)c(F)cc5F)nn4)C/C=C\[C@H]2C)[C@H](O)[C@@H](O)[C@H]3O)C1` [FSA1609051, (4S,5aS,8S,8aR)-4-isobutyl-N-((1R,3S,7R,8R,9R,10R,11S,12R,Z)-10,11,12-trihydroxy-7-methyl-3-(1-(2,4,5-trifluorophenyl)-1H-1,2,3-triazol-4-yl)-13-oxa-2-thiabicyclo[7.3.1]tridec-5-en-8-yl) octahydro-2H-oxepino[2,3-c]pyrrole-8-carboxamide formate salt]: the MIC amounted to 2 µg/mL in [1] (setting [5]); 4 µg/mL in test [2] (setting [6]); 0.5 µg/mL in the test with E. coli lptD mutant; 0.25 µg/mL in the test with E. coli ΔtolC; 0.25 µg/mL in [3] (setting [7]); 0.5 µg/mL in the test with E. faecium JMI-990536 (setting [8]). In addition, the MIC in the test with K. pneumoniae JMI-991193 (setting [9]) is 8 µg/mL; in test [4] (setting [10]), 0.25 µg/mL; in the test with S. aureus Clinical (cfr) (setting [11]), 0.5 µg/mL; with S. aureus MMX 3035 (setting [12]), 0.5 µg/mL.

As to `CC(C)C[C@@H]1CCO[C@@H]2[C@H](CN[C@@H]2C(=O)N[C@@H]2C/C=C\C[C@@H](C(F)F)S[C@H]3O[C@H]2[C@H](O)[C@H](O)[C@H]3O)C1` [FSA1607044, (4S,5aS,8S,8aR)—N-((1R,3S,8R,9R,10R,11S,12R,Z)-3-(difluoromethyl)-10,11,12-trihydroxy-13-oxa-2-thiabicyclo[7.3.1]tridec-5-en-8-yl)-4-isobutyloctahydro-2H-oxepino[2,3-c]pyrrole-8-carboxamide formate salt], the MIC was found to be 8 µg/mL in [1]; 8 µg/mL in test [2]; 2 µg/mL in the test on E. coli lptD mutant; 0.5 µg/mL with E. coli ΔtolC; 0.125 µg/mL in test [3]; 1 µg/mL in the test on E. faecium JMI-990536. For the same molecule, the MIC turned out to be 16 µg/mL with K. pneumoniae JMI-991193, 0.125 µg/mL in [4], 16 µg/mL with S. aureus Clinical (cfr) and 2 µg/mL with S. aureus MMX 3035.
